Source: article PMC10703812, “Understanding the molecular mechanisms of odorant binding and activation of the human OR52 family” (Nature Communications, 2023)
Values joined by “and” are separate entries in the source; they are usually repeats but may differ in a detail not shown here. Identical values can stand only once.

Legend:
OR52cs [1] = experiment: cAMP signaling assay (cAMP sensor) in Hana3A cells; format: cell-based, human
Method: For cAMP assay, CRE luciferase assay, and surface ELISA, the full-length OR52cs construct was cloned into the pcDNA3.1 vector. The Lucy signal sequence and FLAG peptide sequence were added to the N-terminus. Mutant constructs were generated by site-directed mutagenesis. For BRET assay, eYFP was added at the C-terminus of OR52cs with a GGGGS linker. Rluc was added to Gα for resonance partner (after L99 for Gαs, and I100 for Gαolf, respectively, with GGGGS linker back and forth). […]
(§1) Hana3A cells were seeded on 96-well white microplates and transfected with OR52cs or the corresponding mutants and cAMP sensor (Promega). The medium was exchanged with CO2-independent medium (Gibco) supplemented with 0.375 mg ml^−1 D-luciferin (Nanolight) 48 h after infection, and cells were incubated in the dark at 20 °C for 2 h. Basal luminescence was detected using a Tristar 2 LB 942 multimode reader (Berthold) until it reached a plateau. Subsequently, various concentrations of odorants and forskolin (Sigma-Aldrich) were added to each well, and luminescence was measured again. Data were analyzed and plotted using GraphPad Prism 9.4.1.

OR52cs R265A = experiment: CRE luciferase assay in Hana3A cells, mutant; format: cell-based, human; conditions: 100 µM carboxylic acid; Fig.S7a, single experiments
Method: (§2) For cAMP assay, CRE luciferase assay, and surface ELISA, the full-length OR52cs construct was cloned into the pcDNA3.1 vector. The Lucy signal sequence and FLAG peptide sequence were added to the N-terminus. Mutant constructs were generated by site-directed mutagenesis. For BRET assay, eYFP was added at the C-terminus of OR52cs with a GGGGS linker. Rluc was added to Gα for resonance partner (after L99 for Gαs, and I100 for Gαolf, respectively, with GGGGS linker back and forth).
48 h after infection, cells were treated with odorants and incubated at 37 °C for 4 h. […] All values were divided by the Renilla luciferase activity to normalize the effect of cell confluence. All data were analyzed using GraphPad Prism 9.4.1.

OR52cs ΔN(1–18) = experiment: cAMP signaling assay, N-tail deletion mutant; format: cell-based, human; conditions: Fig. 2c
Method: as §2, §1

OR52cs [2] = experiment: CRE luciferase assay in Hana3A cells; format: cell-based, human; conditions: Fig.S7b, single experiments
Method: as §2
Hana3A cells were seeded on 96-well white microplates (SPL) and transfected with plasmids encoding CRE-luciferase, OR52cs or R265^6.59A mutant, Renilla luciferase, RTP1S, and Ric8b at a […] ratio 24 h after seeding. 48 h after infection, cells were treated with odorants and incubated at 37 °C for 4 h. Luminescence was measured using a Tristar 2 LB 942 multimode reader (Berthold). All values were divided by the Renilla luciferase activity to normalize the effect of cell confluence. All data were analyzed using GraphPad Prism 9.4.1.

[3] = test system: pcDNA (Null) Hana3A cells; experiment: cAMP signaling assay, no receptor (Null / pcDNA); format: cell-based; design: cAMP response: unit not given here; conditions: single experiments; for cAMP response: Fig.S11a source data
Method: as §1

OR52cs-bRIL-ICL3 = experiment: cAMP signaling assay, bRIL chimera; format: cell-based, human; design: cAMP response: scale not given here; conditions: for cAMP response: Fig.S11a source data
Source text: For the structural study of apo state OR52cs, the chimeric construct of full-length OR52cs (1–313)[23] was designed to insert bRIL between A226 and L227 with a linker sequence derived from adenosine receptor A2a, as previously described. For purification of active state OR52cs, full-length OR52cs (1–313) was used. Each construct was subcloned into the pFastBac HT B vector with a Lucy signal sequence ([…])[17] and FLAG peptide at the N-terminus. Each construct also included an eGFP with 10xHis-tag, which was fused to the C-terminus of OR52cs with a HRV 3C protease cleavage sequence.
as §1

OR52cs / Gαolf = experiment: BRET assay, G protein recruitment to OR52cs; format: cell-based, human; conditions: 500 µM OCA; Gαolf-Rluc; Fig.S2a, single experiments; listed as OCA
Method: as §2
(§3) All signaling assays were performed in Hana3A cells, which were kindly provided by Dr. Matsunami. Cells were seeded on 6-well clear plate (SPL) and co-transfected with OR52cs-eYFP, Gαs-Rluc or Gαolf-Rluc, Gβ1 and Gγ2 at a 5:1:1:1 ratio. 48 h after infection, cells were collected and resuspended with PBS. 500 μM of OCA was treated to the cells, and cells were transferred to 96-well white microplate (SPL). Coelenterazine H (Nanolight) was added to each well at a final concentration of 10 μM and luminescence was measured using a Tristar 2 LB 942 multimode reader (Berthold). Data were analyzed using GraphPad Prism 9.4.1.

OR52cs / Gαs = experiment: BRET assay, G protein recruitment to OR52cs; format: cell-based, human; conditions: 500 µM OCA; Gαs-Rluc; Fig.S2a, single experiments; listed as OCA
Method: as §2, §3

OR52cs Y282A = experiment: cAMP signaling assay, mutant; format: cell-based, human; conditions: odorant 0.001 M; Fig.S13b source data, single experiments
Method: as §2, §1

OR52cs H183A = experiment: cAMP signaling assay, mutant; format: cell-based, human; conditions: for cAMP response: Fig.3d source data, single experiments
Method: as §2, §1

OR52cs V158F = experiment: cAMP signaling assay, mutant; format: cell-based, human; conditions: for cAMP response: Fig.S8b source data, single experiments
Method: as §2, §1

[4] = odorant 0.001 M (1 mM OCA), Fig.S11a left, single experiments, listed as Octanotae

## CCCCCCCC(=O)O [Octanoate, octanoic acid]
OR52cs [1]; Supplementary Fig. 13b
  EC50: 7 µM
OR52cs [1]; Supplementary Table 3
  X-fold over OR52cs (relative fold of EC50): 1
OR52cs [1]; Supplementary Table 3, N=5
  EC50: 7.9 µM
  pEC50 ± SEM: 5.230 ± 0.107
OR52cs [1]; odorant 9.18274e-8 M, Fig.S11a source data, single experiments
  cAMP response: 5.085 and 3.831 and 4.775 and 5.026
OR52cs [1]; odorant 9.18274e-7 M, Fig.S11a source data, single experiments
  cAMP response: 14.274 and 13.5525 and 12.3756 and 13.817
OR52cs [1]; odorant 9.18274e-6 M, Fig.S11a source data, single experiments
  cAMP response: 55.4145 and 67.6331 and 64.1017 and 55.2862
OR52cs [1]; odorant 3.0303e-5 M, Fig.S11a source data, single experiments
  cAMP response: 86.9919 and 78.2813 and 84.5166 and 65.845
OR52cs [1]; odorant 0.0001 M, Fig.1a source data, single experiments
  cAMP response: 127.982 and 109.844 and 107.02 and 115.524 and 104.582
OR52cs [1]; odorant 0.0001 M, Fig.S11a source data, single experiments
  cAMP response: 98.5501 and 101.54 and 117.496 and 98.6522
OR52cs [1]; [4]
  cAMP response (raw signal) upon OCA treatment: 146668 and 160587 and 152997 and 131980
OR52cs [1]; odorant 0.001 M, Fig.1a source data, single experiments
  cAMP response: 103.349 and 98.3823 and 101.697 and 99.3544 and 97.2175
OR52cs [1]; odorant 0.001 M, Fig.S11a source data, single experiments
  cAMP response: 95.2215 and 104.803 and 111.594 and 89.2504
OR52cs R265A
  relative fold (luciferase activity over DMSO): 1.143 fold and 0.8826 fold and 1.532 fold and 1.19 fold
OR52cs ΔN(1–18)
  downstream signaling (in words): loss of downstream signaling
OR52cs [2]; odorant 10 μM
  relative fold of CRE luciferase activity: 1.744 fold and 2.175 fold and 2.388 fold and 2.247 fold
OR52cs [2]; odorant 50 μM
  relative fold of CRE luciferase activity: 4.124 fold and 3.914 fold and 5.3918 fold and 4.986 fold
OR52cs [2]; odorant 100 μM
  relative fold of CRE luciferase activity: 4.893 fold and 4.461 fold and 6.103 fold and 6.04 fold
OR52cs [2]; odorant 250 μM
  relative fold of CRE luciferase activity: 5.851 fold and 4.875 fold and 6.831 fold and 6.812 fold
OR52cs [2]; odorant 500 μM
  relative fold of CRE luciferase activity: 8.532 fold and 7.359 fold and 7.746 fold and 7.343 fold
[3]; odorant 9.18274e-8 M
  cAMP response: 2.6643 and 2.911 and 3.873 and 3.399
[3]; odorant 9.18274e-7 M
  cAMP response: 2.569 and 3.588 and 3.415 and 3.589
[3]; odorant 9.18274e-6 M
  cAMP response: 2.895 and 3.57 and 4.047 and 4.019
[3]; odorant 3.0303e-5 M
  cAMP response: 3.574 and 3.7923 and 3.945 and 4.033
[3]; odorant 0.0001 M
  cAMP response: 3.1425 and 4.269 and 3.81 and 3.981
[3]; odorant 0.001 M (1 mM OCA), Fig.S11a left, listed as Octanotae
  cAMP response (raw signal) upon OCA treatment: 10538 and 15823 and 16065 and 17585
[3]; odorant 0.001 M
  cAMP response: 4.161 and 5.018 and 6.3304 and 6.191
OR52cs-bRIL-ICL3; Supplementary Fig. 11
  OCA-induced activity (in words): neither basal activity nor OCA-induced activity
OR52cs-bRIL-ICL3; odorant 9.18274e-8 M, single experiments
  cAMP response: 2.864 and 3.4309 and 3.889 and 3.292
OR52cs-bRIL-ICL3; odorant 9.18274e-7 M, single experiments
  cAMP response: 3.793 and 3.523 and 3.621 and 3.789
OR52cs-bRIL-ICL3; odorant 9.18274e-6 M, single experiments
  cAMP response: 3.871 and 2.869 and 3.568 and 3.2862
OR52cs-bRIL-ICL3; odorant 3.0303e-5 M, single experiments
  cAMP response: 3.732 and 3.68 and 3.466 and 3.76
OR52cs-bRIL-ICL3; odorant 0.0001 M, single experiments
  cAMP response: 4.827 and 3.799 and 4.225 and 4.217
OR52cs-bRIL-ICL3; [4]
  cAMP response (raw signal) upon OCA treatment: 8475 and 9202 and 7849 and 10195
OR52cs-bRIL-ICL3; odorant 0.001 M, single experiments
  cAMP response: 5.645 and 5.075 and 5.021 and 7.052
OR52cs / Gαolf
  ΔBRET (OCA- minus vehicle-treated BRET signal): 0.01011 and 0.01399 and 0.007869 and 0.00957 and 0.01164
OR52cs / Gαs
  ΔBRET (OCA- minus vehicle-treated BRET signal): 0.0184 and 0.01592 and 0.01247 and 0.01013 and 0.01218
OR52cs Y282A
  cAMP response: 0.7944 and 0.7429 and 0.9514
OR52cs H183A; Supplementary Table 3, N=3
  EC50: 41.4 µM
  pEC50 ± SEM: 4.154 ± 0.087
OR52cs H183A; odorant 0.0001 M
  cAMP response: 48.2985 and 50.8568 and 78.4687
OR52cs H183A; odorant 0.001 M
  cAMP response: 61.0348 and 75.0061 and 91.5473
OR52cs V158F; Supplementary Fig. 8
  downstream signal / selectivity (in words): greatly reduced the downstream signal
OR52cs V158F; odorant 9.18274e-8 M
  cAMP response: -0.2745% and -0.4519% and -0.2741%
OR52cs V158F; odorant 9.18274e-7 M
  cAMP response: -1.206% and -1.168% and -3.0916%
OR52cs V158F; odorant 9.18274e-6 M
  cAMP response: 1.8013% and 0.5178% and -1.853%
OR52cs V158F; odorant 3.0303e-5 M
  cAMP response: 11.8948% and 7.17% and 7.559%
OR52cs V158F; odorant 0.0001 M
  cAMP response: 32.9355% and 23.3075% and 28.8455%
OR52cs V158F; odorant 0.001 M
  cAMP response: 85.6572% and 61.8428% and 79.0275%
